From US20060140857A1, “Method of the administration of drugs with binding affinity for plasma protein and preparation to be used in the method” (NIHON MEDI-PHYSICS CO., LTD., priority 1999, published 2006)

Key:
[1] = Biodistribution of 123I-IMP in rat with verapamil loading; details: rats
Method: The rats were decapitated at 2, 5, 10, 30 and 60 minutes after administration. Then the blood was sampled and the organs of interest were excised. After measured the weight of these specimens, the radioactivities of the blood and organs were measured. After half-life of the radioactivities were corrected, the accumulation rate (% dose/g of the tissue) was obtained.

[2] = Free fraction of 123I-IMP in the blood of rats with verapamil loading; format: in vivo, rat
Method: Under the same conditions as mentioned above concerning the constitution of control and testing group, timings of decapitation, and dose of drugs, administrations of the drugs and decapitations of rats were conducted, and 3-5 ml of blood per one rat was sampled.

human plasma protein = assay: Displacement of 123I-IMP binding to human plasma protein; details: human serum, control without second drug
[3] = loaded with verapamil about 10 mg/kg, 2 Minutes
[4] = loaded with verapamil about 10 mg/kg, 5 Minutes
[5] = loaded with verapamil about 10 mg/kg, 10 Minutes
[6] = loaded with verapamil about 10 mg/kg, 30 Minutes
[7] = loaded with verapamil about 10 mg/kg, 60 Minutes

CC(C)NC(C)Cc1ccc(I)cc1 (centres unmarked) [123I-IMP, N-isopropyl-p-iodoamphetamine]
Biodistribution of 123I-IMP, Blood ([1]; control group, 2 Minutes): 0.198 ± 0.052 % Dose/g Tissue
Biodistribution of 123I-IMP, Brain ([1]; control group, 2 Minutes): 1.800 ± 0.418 % Dose/g Tissue
Biodistribution of 123I-IMP, Heart ([1]; control group, 2 Minutes): 1.949 ± 0.293 % Dose/g Tissue
Biodistribution of 123I-IMP, Kidney ([1]; control group, 2 Minutes): 3.406 ± 0.905 % Dose/g Tissue
Biodistribution of 123I-IMP, Liver ([1]; control group, 2 Minutes): 0.506 ± 0.109 % Dose/g Tissue
Biodistribution of 123I-IMP, Lung ([1]; control group, 2 Minutes): 11.236 ± 0.780 % Dose/g Tissue
Biodistribution of 123I-IMP, Pancreas ([1]; control group, 2 Minutes): 1.503 ± 0.353 % Dose/g Tissue
Biodistribution of 123I-IMP, Spleen ([1]; control group, 2 Minutes): 0.880 ± 0.216 % Dose/g Tissue
Biodistribution of 123I-IMP, Stomach ([1]; control group, 2 Minutes): 0.302 ± 0.065 % Dose/g Tissue
Biodistribution of 123I-IMP, Blood ([1]; control group, 5 Minutes): 0.133 ± 0.005 % Dose/g Tissue
Biodistribution of 123I-IMP, Brain ([1]; control group, 5 Minutes): 1.476 ± 0.225 % Dose/g Tissue
Biodistribution of 123I-IMP, Heart ([1]; control group, 5 Minutes): 1.014 ± 0.070 % Dose/g Tissue
Biodistribution of 123I-IMP, Kidney ([1]; control group, 5 Minutes): 2.285 ± 0.256 % Dose/g Tissue
Biodistribution of 123I-IMP, Liver ([1]; control group, 5 Minutes): 0.699 ± 0.061 % Dose/g Tissue
Biodistribution of 123I-IMP, Lung ([1]; control group, 5 Minutes): 9.000 ± 0.600 % Dose/g Tissue
Biodistribution of 123I-IMP, Pancreas ([1]; control group, 5 Minutes): 1.923 ± 0.445 % Dose/g Tissue
Biodistribution of 123I-IMP, Spleen ([1]; control group, 5 Minutes): 0.999 ± 0.355 % Dose/g Tissue
Biodistribution of 123I-IMP, Stomach ([1]; control group, 5 Minutes): 0.500 ± 0.078 % Dose/g Tissue
Biodistribution of 123I-IMP, Blood ([1]; control group, 10 Minutes): 0.116 ± 0.011 % Dose/g Tissue
Biodistribution of 123I-IMP, Brain ([1]; control group, 10 Minutes): 1.006 ± 0.379 % Dose/g Tissue
Biodistribution of 123I-IMP, Heart ([1]; control group, 10 Minutes): 0.631 ± 0.111 % Dose/g Tissue
Biodistribution of 123I-IMP, Kidney ([1]; control group, 10 Minutes): 1.303 ± 0.190 % Dose/g Tissue
Biodistribution of 123I-IMP, Liver ([1]; control group, 10 Minutes): 0.711 ± 0.143 % Dose/g Tissue
Biodistribution of 123I-IMP, Lung ([1]; control group, 10 Minutes): 6.279 ± 1.026 % Dose/g Tissue
Biodistribution of 123I-IMP, Pancreas ([1]; control group, 10 Minutes): 1.721 ± 0.217 % Dose/g Tissue
Biodistribution of 123I-IMP, Spleen ([1]; control group, 10 Minutes): 1.008 ± 0.074 % Dose/g Tissue
Biodistribution of 123I-IMP, Stomach ([1]; control group, 10 Minutes): 0.407 ± 0.230 % Dose/g Tissue
Biodistribution of 123I-IMP, Blood ([1]; control group, 30 Minutes): 0.136 ± 0.028 % Dose/g Tissue
Biodistribution of 123I-IMP, Brain ([1]; control group, 30 Minutes): 1.346 ± 0.345 % Dose/g Tissue
Biodistribution of 123I-IMP, Heart ([1]; control group, 30 Minutes): 0.524 ± 0.037 % Dose/g Tissue
Biodistribution of 123I-IMP, Kidney ([1]; control group, 30 Minutes): 1.359 ± 0.222 % Dose/g Tissue
Biodistribution of 123I-IMP, Liver ([1]; control group, 30 Minutes): 1.192 ± 0.536 % Dose/g Tissue
Biodistribution of 123I-IMP, Lung ([1]; control group, 30 Minutes): 5.209 ± 1.446 % Dose/g Tissue
Biodistribution of 123I-IMP, Pancreas ([1]; control group, 30 Minutes): 2.032 ± 0.505 % Dose/g Tissue
Biodistribution of 123I-IMP, Spleen ([1]; control group, 30 Minutes): 1.356 ± 0.277 % Dose/g Tissue
Biodistribution of 123I-IMP, Stomach ([1]; control group, 30 Minutes): 0.885 ± 0.366 % Dose/g Tissue
Biodistribution of 123I-IMP, Blood ([1]; control group, 60 Minutes): 0.181 ± 0.006 % Dose/g Tissue
Biodistribution of 123I-IMP, Brain ([1]; control group, 60 Minutes): 1.511 ± 0.011 % Dose/g Tissue
Biodistribution of 123I-IMP, Heart ([1]; control group, 60 Minutes): 0.540 ± 0.026 % Dose/g Tissue
Biodistribution of 123I-IMP, Kidney ([1]; control group, 60 Minutes): 1.585 ± 0.132 % Dose/g Tissue
Biodistribution of 123I-IMP, Liver ([1]; control group, 60 Minutes): 1.442 ± 0.164 % Dose/g Tissue
Biodistribution of 123I-IMP, Lung ([1]; control group, 60 Minutes): 5.186 ± 0.616 % Dose/g Tissue
Biodistribution of 123I-IMP, Pancreas ([1]; control group, 60 Minutes): 1.957 ± 0.345 % Dose/g Tissue
Biodistribution of 123I-IMP, Spleen ([1]; control group, 60 Minutes): 1.290 ± 0.138 % Dose/g Tissue
Biodistribution of 123I-IMP, Stomach ([1]; control group, 60 Minutes): 1.245 ± 0.343 % Dose/g Tissue
Biodistribution of 123I-IMP, Blood [1, 3]: 0.238 ± 0.083 % Dose/g Tissue
Biodistribution of 123I-IMP, Brain [1, 3]: 1.584 ± 0.425 % Dose/g Tissue
Biodistribution of 123I-IMP, Heart [1, 3]: 3.769 ± 0.911 % Dose/g Tissue
Biodistribution of 123I-IMP, Kidney [1, 3]: 1.424 ± 0.313 % Dose/g Tissue
Biodistribution of 123I-IMP, Liver [1, 3]: 0.287 ± 0.156 % Dose/g Tissue
Biodistribution of 123I-IMP, Lung [1, 3]: 9.234 ± 1.748 % Dose/g Tissue
Biodistribution of 123I-IMP, Pancreas [1, 3]: 1.268 ± 0.375 % Dose/g Tissue
Biodistribution of 123I-IMP, Spleen [1, 3]: 0.052 ± 0.025 % Dose/g Tissue
Biodistribution of 123I-IMP, Stomach [1, 3]: 0.234 ± 0.111 % Dose/g Tissue
Biodistribution of 123I-IMP, Blood [1, 4]: 0.228 ± 0.012 % Dose/g Tissue
Biodistribution of 123I-IMP, Brain [1, 4]: 1.916 ± 0.131 % Dose/g Tissue
Biodistribution of 123I-IMP, Heart [1, 4]: 2.260 ± 0.680 % Dose/g Tissue
Biodistribution of 123I-IMP, Kidney [1, 4]: 1.278 ± 0.381 % Dose/g Tissue
Biodistribution of 123I-IMP, Liver [1, 4]: 0.350 ± 0.130 % Dose/g Tissue
Biodistribution of 123I-IMP, Lung [1, 4]: 8.377 ± 0.563 % Dose/g Tissue
Biodistribution of 123I-IMP, Pancreas [1, 4]: 1.659 ± 0.496 % Dose/g Tissue
Biodistribution of 123I-IMP, Spleen [1, 4]: 0.063 ± 0.250 % Dose/g Tissue
Biodistribution of 123I-IMP, Stomach [1, 4]: 0.164 ± 0.078 % Dose/g Tissue
Biodistribution of 123I-IMP, Blood [1, 5]: 0.139 ± 0.003 % Dose/g Tissue
Biodistribution of 123I-IMP, Brain [1, 5]: 2.145 ± 0.410 % Dose/g Tissue
Biodistribution of 123I-IMP, Heart [1, 5]: 1.247 ± 0.209 % Dose/g Tissue
Biodistribution of 123I-IMP, Kidney [1, 5]: 1.766 ± 0.678 % Dose/g Tissue
Biodistribution of 123I-IMP, Liver [1, 5]: 0.688 ± 0.237 % Dose/g Tissue
Biodistribution of 123I-IMP, Lung [1, 5]: 6.947 ± 1.486 % Dose/g Tissue
Biodistribution of 123I-IMP, Pancreas [1, 5]: 1.911 ± 0.685 % Dose/g Tissue
Biodistribution of 123I-IMP, Spleen [1, 5]: 0.213 ± 0.118 % Dose/g Tissue
Biodistribution of 123I-IMP, Stomach [1, 5]: 0.377 ± 0.013 % Dose/g Tissue
Biodistribution of 123I-IMP, Blood [1, 6]: 0.098 ± 0.044 % Dose/g Tissue
Biodistribution of 123I-IMP, Brain [1, 6]: 1.529 ± 0.811 % Dose/g Tissue
Biodistribution of 123I-IMP, Heart [1, 6]: 0.471 ± 0.209 % Dose/g Tissue
Biodistribution of 123I-IMP, Kidney [1, 6]: 1.231 ± 0.632 % Dose/g Tissue
Biodistribution of 123I-IMP, Liver [1, 6]: 1.185 ± 0.751 % Dose/g Tissue
Biodistribution of 123I-IMP, Lung [1, 6]: 3.890 ± 2.223 % Dose/g Tissue
Biodistribution of 123I-IMP, Pancreas [1, 6]: 1.877 ± 0.886 % Dose/g Tissue
Biodistribution of 123I-IMP, Spleen [1, 6]: 0.886 ± 0.319 % Dose/g Tissue
Biodistribution of 123I-IMP, Stomach [1, 6]: 0.782 ± 0.621 % Dose/g Tissue
Biodistribution of 123I-IMP, Blood [1, 7]: 0.110 ± 0.002 % Dose/g Tissue
Biodistribution of 123I-IMP, Brain [1, 7]: 1.449 ± 0.281 % Dose/g Tissue
Biodistribution of 123I-IMP, Heart [1, 7]: 0.456 ± 0.039 % Dose/g Tissue
Biodistribution of 123I-IMP, Kidney [1, 7]: 1.242 ± 0.146 % Dose/g Tissue
Biodistribution of 123I-IMP, Liver [1, 7]: 1.639 ± 0.051 % Dose/g Tissue
Biodistribution of 123I-IMP, Lung [1, 7]: 4.133 ± 0.079 % Dose/g Tissue
Biodistribution of 123I-IMP, Pancreas [1, 7]: 1.478 ± 0.161 % Dose/g Tissue
Biodistribution of 123I-IMP, Spleen [1, 7]: 1.193 ± 0.129 % Dose/g Tissue
Biodistribution of 123I-IMP, Stomach [1, 7]: 1.058 ± 0.126 % Dose/g Tissue
Free fraction (%) of 123I-IMP in the blood of rats ([2]; control group, 2 Minutes): 56.75 ± 9.21%
Free fraction (%) of 123I-IMP in the blood of rats ([2]; control group, 5 Minutes): 50.70 ± 10.37%
Free fraction (%) of 123I-IMP in the blood of rats ([2]; control group, 10 Minutes): 45.91 ± 3.12%
Free fraction (%) of 123I-IMP in the blood of rats ([2]; control group, 30 Minutes): 27.29 ± 4.85%
Free fraction (%) of 123I-IMP in the blood of rats ([2]; control group, 60 Minutes): 16.77 ± 4.11%
Free fraction (%) of 123I-IMP in the blood of rats ([2]; test group with verapamil loading, 2 Minutes): 52.40 ± 6.00%
Free fraction (%) of 123I-IMP in the blood of rats ([2]; test group with verapamil loading, 5 Minutes): 56.52 ± 4.38%
Free fraction (%) of 123I-IMP in the blood of rats ([2]; test group with verapamil loading, 10 Minutes): 66.86 ± 6.34%
Free fraction (%) of 123I-IMP in the blood of rats ([2]; test group with verapamil loading, 30 Minutes): 38.03 ± 6.69%
Free fraction (%) of 123I-IMP in the blood of rats ([2]; test group with verapamil loading, 60 Minutes): 31.86 ± 8.23%
free of fraction of 123I-IMP (%) (human plasma protein): 29.29%
